Measured values reported in US10941158B2, “Pyrazole ACC inhibitors and uses thereof” (Gilead Apollo, LLC, priority 2015, dated 2021).
In brackets after ≈: the same amount, converted by molar mass. Like-named read-outs stand apart in the source and are kept apart here.

How the values were obtained:
human (hACC2) ACC2 = human (hACC2) ACC2 (Homo sapiens, UniProt O00763); assay: In vitro Acetyl-CoA Carboxylase (ACC) inhibition assay (ADP-Glo), hACC2; format: biochemical
Description: The detailed procedure is as follows. […] 10 μL ADP glo reagent was added. […] 20 μL kinase detection reagent was added.
“NA” stands for “not assayed.”

C. albicans ATCC 90028 = assay: Anti-Fungal (Candida) Activity Assay, broth microtiter MIC; format: cell-based; conditions: read-out: MIC C. albicans ATCC 90028
How it was run: (§1)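 Strains plated from frozen stock onto Sabouraud dextrose agar, 35 °C, 24 h; colonies suspended directly in RPMI 1640/MOPS, density from standard curves; CLSI M27-A3 microdilution; 48 h read, visual vs growth control.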

C. krusei ATCC 6258 = assay: as above; format: cell-based; conditions: Pichia kudriavzevii, read-out: MIC C. krusei ATCC 6258
How it was run: as §1

[1] = test system: C. parapsilosis ATCC 22019; assay: as above; format: cell-based; conditions: Lodderomyces parapsilosis, read-out: MIC C. parapsilosis ATCC 22019
How it was run: as §1

Botrtyis cinerea (Bc) = assay: Growth inhibition assay of fungal pathogens; format: cell-based; conditions: 48 h, read-out: Concentration at 90% Inhibition Bc
How it was run: (§2)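 OD600 (blank-subtracted) plus visual scoring at 48 h, vs 2% DMSO ctrl → % inhibition. Final cpd 50/10/2 or 2/0.4/0.08 ppm. Fm/Bc/Dm spores in 17% V8 broth; Rs as 1.5 mm plugs in ¼ PDB.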

[2] = test system: Collectotrichum graminicola (Cg); assay: Growth inhibition assay of fungal pathogens; format: cell-based; conditions: 48 h, read-out: Concentration at 90% Inhibition Cg
How it was run: (§3)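 Liquid-culture assay in which test compounds are applied at three final concentrations (50, 10, 2 ppm or 2, 0.4, 0.08 ppm). Inoculum levels follow 48 h growth curves for each fungus. Growth is monitored by OD600 and by eye, and the 48 h values give % inhibition against DMSO.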

Diplodia maydis (Dm) = assay: Growth inhibition assay of fungal pathogens; format: cell-based; conditions: Stenocarpella maydis, 48 h, read-out: Concentration at 90% Inhibition Dm
How it was run: as §2

[3] = test system: Fusarium moniliforme (Fm); assay: Growth inhibition assay of fungal pathogens; format: cell-based; conditions: for IC90: Fusarium verticillioides, 48 h, read-out: Concentration at 90% Inhibition Fm
How it was run: as §2

[4] = test system: Fusarium virguliforme (Fv); assay: Growth inhibition assay of fungal pathogens; format: cell-based; conditions: 48 h
How it was run: as §3

[5] = test system: Phytophthora capsici (Pc); assay: Growth inhibition assay of fungal pathogens; format: cell-based; conditions: for IC90: Phytophthora capsici, read-out: Concentration at 90% Inhibition Pc
How it was run: as §3

Rhizoctonia solani (Rs) = assay: Growth inhibition assay of fungal pathogens; format: cell-based; conditions: 48 h, read-out: Concentration at 90% Inhibition Rs
How it was run: as §2

Septoria tritici (St) = assay: Growth inhibition assay of fungal pathogens; format: cell-based; conditions: for IC90: Zymoseptoria tritici, read-out: Concentration at 90% Inhibition St
How it was run: as §3

fungal (fACC2) ACC2 = fungal (fACC2) ACC2 (UniProt Q00955); conditions: read-out: fACC2 IC50; fungal ACC2, ADP-Glo
Sequence of fungal (fACC2) ACC2 (Q00955 whole entry): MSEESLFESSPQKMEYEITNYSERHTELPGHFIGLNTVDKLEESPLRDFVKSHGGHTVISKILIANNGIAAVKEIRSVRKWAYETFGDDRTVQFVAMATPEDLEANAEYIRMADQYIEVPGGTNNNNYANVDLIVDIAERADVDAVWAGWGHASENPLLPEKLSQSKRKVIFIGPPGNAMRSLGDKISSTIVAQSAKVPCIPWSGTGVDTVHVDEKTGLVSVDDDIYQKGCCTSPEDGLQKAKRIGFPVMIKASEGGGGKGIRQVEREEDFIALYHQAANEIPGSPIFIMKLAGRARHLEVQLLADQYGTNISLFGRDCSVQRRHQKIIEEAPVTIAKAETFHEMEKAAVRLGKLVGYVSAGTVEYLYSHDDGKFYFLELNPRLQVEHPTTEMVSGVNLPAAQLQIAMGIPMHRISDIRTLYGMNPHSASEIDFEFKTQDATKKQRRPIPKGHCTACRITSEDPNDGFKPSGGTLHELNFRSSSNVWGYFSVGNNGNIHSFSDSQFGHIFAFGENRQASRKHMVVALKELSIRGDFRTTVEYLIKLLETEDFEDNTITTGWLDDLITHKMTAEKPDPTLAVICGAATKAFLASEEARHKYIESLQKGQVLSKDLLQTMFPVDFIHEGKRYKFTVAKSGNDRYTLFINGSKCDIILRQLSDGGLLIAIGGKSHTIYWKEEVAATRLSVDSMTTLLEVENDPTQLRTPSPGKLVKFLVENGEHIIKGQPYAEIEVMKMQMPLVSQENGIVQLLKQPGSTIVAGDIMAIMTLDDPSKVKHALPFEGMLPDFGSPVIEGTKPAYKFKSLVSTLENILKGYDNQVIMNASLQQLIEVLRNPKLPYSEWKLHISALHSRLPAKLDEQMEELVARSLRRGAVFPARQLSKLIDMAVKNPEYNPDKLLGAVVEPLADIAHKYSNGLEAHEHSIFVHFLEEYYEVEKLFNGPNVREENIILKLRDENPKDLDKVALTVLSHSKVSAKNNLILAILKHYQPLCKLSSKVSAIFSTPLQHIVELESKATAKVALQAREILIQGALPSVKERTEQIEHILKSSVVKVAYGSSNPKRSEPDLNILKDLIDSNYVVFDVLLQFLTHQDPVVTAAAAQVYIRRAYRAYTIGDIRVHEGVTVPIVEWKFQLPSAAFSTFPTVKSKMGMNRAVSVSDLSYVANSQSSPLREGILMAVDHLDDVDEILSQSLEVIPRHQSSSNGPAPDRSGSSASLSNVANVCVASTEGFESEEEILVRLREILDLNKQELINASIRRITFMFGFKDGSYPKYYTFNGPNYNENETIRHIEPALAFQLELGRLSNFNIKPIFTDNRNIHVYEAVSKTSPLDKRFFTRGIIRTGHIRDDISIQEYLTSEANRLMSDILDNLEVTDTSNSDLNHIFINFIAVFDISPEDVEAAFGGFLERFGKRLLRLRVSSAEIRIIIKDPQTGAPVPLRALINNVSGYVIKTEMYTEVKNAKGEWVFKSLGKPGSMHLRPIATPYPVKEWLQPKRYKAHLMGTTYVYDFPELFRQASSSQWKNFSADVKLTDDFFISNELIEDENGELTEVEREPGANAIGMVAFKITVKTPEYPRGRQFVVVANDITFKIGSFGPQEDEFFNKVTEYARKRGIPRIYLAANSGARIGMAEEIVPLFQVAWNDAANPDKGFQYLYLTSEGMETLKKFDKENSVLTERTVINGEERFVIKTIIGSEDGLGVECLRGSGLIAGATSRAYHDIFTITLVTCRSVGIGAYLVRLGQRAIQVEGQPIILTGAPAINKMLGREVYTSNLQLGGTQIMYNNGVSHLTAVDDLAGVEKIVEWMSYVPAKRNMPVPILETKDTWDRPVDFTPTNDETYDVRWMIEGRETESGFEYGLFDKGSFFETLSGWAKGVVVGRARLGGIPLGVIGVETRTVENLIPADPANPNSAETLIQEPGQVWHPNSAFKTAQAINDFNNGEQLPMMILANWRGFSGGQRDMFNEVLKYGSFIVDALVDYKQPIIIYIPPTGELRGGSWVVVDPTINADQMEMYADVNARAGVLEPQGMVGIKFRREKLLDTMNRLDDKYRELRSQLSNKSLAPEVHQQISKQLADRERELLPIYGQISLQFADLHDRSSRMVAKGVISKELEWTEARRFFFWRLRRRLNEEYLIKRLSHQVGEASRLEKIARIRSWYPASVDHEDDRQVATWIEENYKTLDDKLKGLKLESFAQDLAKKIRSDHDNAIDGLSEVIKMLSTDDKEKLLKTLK
Description: An exemplary procedure for the in vitro ACC inhibition assay, which can be used to determine the inhibitory action of compounds of the invention toward either human (hACC2) or fungal (fACC2) ACC2, follows. The ADP-Glo™ Kinase Assay kit from Promega was used. The ADP-Glo™ Kinase Assay is a luminescent ADP detection assay to measure enzymatic activity by quantifying the amount of ADP produced during an enzyme reaction. The assay is performed in two steps; first, after the enzyme reaction, an equal volume of ADP-Glo™ Reagent is added to terminate the reaction and deplete the remaining ATP. Second, the Kinase Detection Reagent is added to simultaneously convert ADP to ATP and allow the newly synthesized ATP to be measured using a luciferase/luciferin reaction. Luminescence can be correlated to ADP concentrations by using an ATP-to-ADP conversion curve. The detailed procedure is as follows. 50 μL of the compound being tested (600 μM in DMSO) was added to a 384-well dilution plate. The compound was diluted 1:3 in succession in DMSO for each row for 11 wells. 0.5 μL ACC2 working solution was added to 384-well white Optiplate assay plate. 0.5 μL diluted compound solution in each column from step 2 was added to assay plate, each row containing 2 replicates. […] The plates were incubated at room temperature for 15 minutes. 5 μL substrate working solution was added to each well to initiate reaction. Final ACC2 reaction concentrations consist of: 5 nM ACC2, 20 μM ATP, 20 μM acetyl-CoA, 12 mM NaHCO3, 0.01% Brij35, 2 mM DTT, 5% DMSO, test compound concentrations: 30 μM, 10 μM, 3.33 μM, 1.11 μM, 0.37 μM, 0.123 μM, 0.0411 μM, 0.0137 μM, 0.00457 μM, 0.00152 μM, and 0.00051 μM. Plates were incubated at room temperature for 60 minutes. 10 μL ADP glo reagent was added. Plates were incubated at room temperature for 40 minutes. 20 μL kinase detection reagent was added. Plates were incubated at room temperature for 40 minutes, and then read on a Perkin Elmer EnVision 2104 plate reader for luminescence as Relative Light Units (RLU).
Data for each concentration, as well as the positive and negative controls were averaged, and the standard deviation calculated. Percent inhibition was calculated by the formula: 100×(average negative control−compound)/(average negative control−average positive control). The IC50 for each compound was calculated by fitting the data with a non-linear regression equation: Y=Bottom+(Top-Bottom)/(1+10^((Log IC50−X)*Hill Slope)), where X is the log of compound concentration and Y is percent inhibition.
Compounds having an activity designated as “AA” provided an IC50 0.0006-0.003 μM; provided an “A” provided an IC50 0.003-0.01 μM; compounds having an activity designated as “B” provided an IC50 0.01-0.04 μM; and compounds having an activity designated as “C” provided an IC50>0.04 μM IC50. “NA” stands for “not assayed.”

[6] = read-out: Concentration at 90% Inhibition Fv, Table 4a, 48 hours
[7] = read-out: Concentration at 90% Inhibition Fv, Table 4b, 48 hours
[8] = ATCC90028, 3 replicates, MIC recorded at 48 h
[9] = ATCC6258, 3 replicates, MIC recorded at 48 h
[10] = ATCC22019, 3 replicates, MIC recorded at 48 h
[11] = Table 4a, 48 hours, read-out: Concentration at 90% Inhibition Fv
[12] = Table 4b, 48 hours, read-out: Concentration at 90% Inhibition Fv

Sequence of human (hACC2) ACC2 (O00763 whole entry): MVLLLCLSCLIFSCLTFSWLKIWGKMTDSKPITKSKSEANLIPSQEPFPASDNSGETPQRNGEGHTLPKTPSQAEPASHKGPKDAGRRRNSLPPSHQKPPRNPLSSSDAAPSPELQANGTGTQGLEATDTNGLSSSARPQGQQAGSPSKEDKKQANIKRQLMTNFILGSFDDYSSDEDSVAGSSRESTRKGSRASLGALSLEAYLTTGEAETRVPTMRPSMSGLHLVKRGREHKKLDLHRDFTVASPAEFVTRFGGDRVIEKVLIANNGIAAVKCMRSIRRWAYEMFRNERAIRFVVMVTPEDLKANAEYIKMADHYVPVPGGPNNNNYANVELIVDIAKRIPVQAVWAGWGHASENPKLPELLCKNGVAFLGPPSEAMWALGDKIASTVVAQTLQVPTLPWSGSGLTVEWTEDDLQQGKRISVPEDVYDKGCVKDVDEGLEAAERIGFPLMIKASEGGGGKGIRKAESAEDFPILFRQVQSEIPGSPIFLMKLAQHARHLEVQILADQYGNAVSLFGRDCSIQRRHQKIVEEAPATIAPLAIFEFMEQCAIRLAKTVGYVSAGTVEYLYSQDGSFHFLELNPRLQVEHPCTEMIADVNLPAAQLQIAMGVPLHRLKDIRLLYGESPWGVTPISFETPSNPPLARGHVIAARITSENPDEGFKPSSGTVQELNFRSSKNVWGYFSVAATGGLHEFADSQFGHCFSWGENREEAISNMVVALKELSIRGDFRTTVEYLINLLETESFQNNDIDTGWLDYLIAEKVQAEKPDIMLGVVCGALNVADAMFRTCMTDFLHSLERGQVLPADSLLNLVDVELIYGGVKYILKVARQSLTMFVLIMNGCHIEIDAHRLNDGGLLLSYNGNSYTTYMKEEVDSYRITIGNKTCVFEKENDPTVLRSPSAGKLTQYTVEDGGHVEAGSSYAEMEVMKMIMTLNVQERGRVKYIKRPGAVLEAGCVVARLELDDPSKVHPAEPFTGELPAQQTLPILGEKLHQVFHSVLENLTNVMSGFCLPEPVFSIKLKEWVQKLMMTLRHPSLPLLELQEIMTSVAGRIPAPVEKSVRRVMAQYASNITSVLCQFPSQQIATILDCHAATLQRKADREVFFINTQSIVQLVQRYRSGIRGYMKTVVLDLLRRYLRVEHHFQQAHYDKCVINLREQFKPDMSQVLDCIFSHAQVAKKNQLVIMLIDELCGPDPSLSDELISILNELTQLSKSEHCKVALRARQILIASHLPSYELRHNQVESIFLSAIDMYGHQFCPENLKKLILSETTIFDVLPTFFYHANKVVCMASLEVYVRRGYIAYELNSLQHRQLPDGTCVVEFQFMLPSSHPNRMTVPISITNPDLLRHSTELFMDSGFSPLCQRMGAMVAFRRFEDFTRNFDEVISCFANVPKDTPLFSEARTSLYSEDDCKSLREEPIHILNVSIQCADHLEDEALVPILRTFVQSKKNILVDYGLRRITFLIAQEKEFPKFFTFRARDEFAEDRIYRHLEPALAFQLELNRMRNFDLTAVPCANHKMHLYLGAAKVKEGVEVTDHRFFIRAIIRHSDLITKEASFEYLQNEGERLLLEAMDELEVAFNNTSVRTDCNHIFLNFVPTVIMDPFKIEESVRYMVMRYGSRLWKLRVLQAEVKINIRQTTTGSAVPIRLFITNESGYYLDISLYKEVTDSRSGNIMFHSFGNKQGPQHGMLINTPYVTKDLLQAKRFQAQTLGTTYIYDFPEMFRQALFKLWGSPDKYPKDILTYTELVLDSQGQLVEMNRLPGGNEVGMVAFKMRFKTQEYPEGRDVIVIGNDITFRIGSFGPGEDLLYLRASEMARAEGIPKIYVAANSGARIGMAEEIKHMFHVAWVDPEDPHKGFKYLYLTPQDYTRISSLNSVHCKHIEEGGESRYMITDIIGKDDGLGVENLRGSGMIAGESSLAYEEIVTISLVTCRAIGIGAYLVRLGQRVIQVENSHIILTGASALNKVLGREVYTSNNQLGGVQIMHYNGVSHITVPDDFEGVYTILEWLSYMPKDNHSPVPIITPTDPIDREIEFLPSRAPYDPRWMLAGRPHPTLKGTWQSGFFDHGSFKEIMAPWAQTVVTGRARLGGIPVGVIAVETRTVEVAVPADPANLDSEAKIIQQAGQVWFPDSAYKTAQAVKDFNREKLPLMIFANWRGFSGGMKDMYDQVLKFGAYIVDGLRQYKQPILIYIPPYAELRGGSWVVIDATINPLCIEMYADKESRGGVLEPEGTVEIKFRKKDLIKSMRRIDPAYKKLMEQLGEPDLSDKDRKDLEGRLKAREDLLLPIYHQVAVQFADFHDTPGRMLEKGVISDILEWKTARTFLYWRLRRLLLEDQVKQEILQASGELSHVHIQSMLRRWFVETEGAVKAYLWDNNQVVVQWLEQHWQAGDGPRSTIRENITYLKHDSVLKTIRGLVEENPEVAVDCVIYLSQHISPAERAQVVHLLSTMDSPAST

Row | SMILES | IC50 (human (hACC2) ACC2) [nM] | MIC (C. albicans ATCC 90028; ATCC90028, 48 h) [µg/mL] | MIC (C. krusei ATCC 6258; ATCC6258, 48 h) [µg/mL] | MIC ([1]; ATCC22019, 48 h) [µg/mL] | IC90 (Botrtyis cinerea (Bc); Table 4a) [µg/mL] | IC90 (Botrtyis cinerea (Bc); Table 4b) [µg/mL] | IC90 ([2]; Table 4a) [µg/mL] | IC90 ([2]; Table 4b) [µg/mL] | IC90 (Diplodia maydis (Dm); Table 4a) [µg/mL] | IC90 (Diplodia maydis (Dm); Table 4b) [µg/mL] | IC90 [3] [µg/mL] | Concentration at 90% Inhibition Fm ([3]; Table 4b, 48 hours) | IC90 [4, 6] [µg/mL] | IC90 [4, 7] [µg/mL] | IC90 ([5]; 48 h, Table 4a) [µg/mL] | IC90 ([5]; 48 h, Table 4b) [µg/mL] | IC90 (Rhizoctonia solani (Rs); Table 4a) [µg/mL] | IC90 (Rhizoctonia solani (Rs); Table 4b) [µg/mL] | IC90 (Septoria tritici (St); 48 h, Table 4a) [µg/mL] | IC50 (fungal (fACC2) ACC2) [nM] | also measured
1 | COc1ccc(F)cc1[C@H](Cn1c(=O)n(C(C)C(=O)NC(C)C)c(=O)c2c(C)c(-n3cccn3)sc21)OC(C)C (stereo partly drawn) [Compound I-29, 2-(1-((R)-2-(5-fluoro-2-methoxyphenyl)-2-isopropoxy-ethyl)-5-methyl-2,4-dioxo-6-(1H-pyrazol-1-yl)-1,4-dihydrothieno[2,3-d]pyrimidin-3(2H)-yl)-N-isopropylpropanamide] | 10 to 40 | 1.1 to 2 (≈ 1.92 to 3.5 µM) | 2.1 to 4 (≈ 3.67 to 7 µM) | > 4.1 | 2 (≈ 3.5 µM) | 2 (≈ 3.5 µM) | 2 (≈ 3.5 µM) | 2 (≈ 3.5 µM) | 2 (≈ 3.5 µM) | 2 (≈ 3.5 µM) | 0.4 (≈ 0.7 µM) | A (“A” provided a compound concentration of 0.4 ppm at 90% inhibition of fungal pathogens) | 2 (≈ 3.5 µM) | 2 (≈ 3.5 µM) | > 50 | > 50 | 2 (≈ 3.5 µM) | 2 (≈ 3.5 µM) | > 50 | 0.6 to 3 | IC90 (Septoria tritici (St); 48 h, Table 4b): > 50 µg/mL
2 | COc1ccc(F)cc1[C@H](Cn1c(=O)n([C@H](C)C(=O)NC(C)C)c(=O)c2c(C)c(-n3cccn3)sc21)OC(C)C [Compound I-30, (R)-2-(1-((R)-2-(5-fluoro-2-methoxyphenyl)-2-isopropoxyethyl)-5-methyl-2,4-dioxo-6-(1H-pyrazol-1-yl)-1,4-dihydrothieno[2,3-d]pyrimidin-3(2H)-yl)-N-isopropylpropanamide] | 3 to 10 | 0.25 to 1 (≈ 0.437 to 1.75 µM) | 0.25 to 1 (≈ 0.437 to 1.75 µM) | 0.25 to 1 (≈ 0.437 to 1.75 µM) | 2 (≈ 3.5 µM) | 2 (≈ 3.5 µM) | 2 (≈ 3.5 µM) | 2 (≈ 3.5 µM) | 2 (≈ 3.5 µM) | 2 (≈ 3.5 µM) | 0.4 (≈ 0.7 µM) | A (“A” provided a compound concentration of 0.4 ppm at 90% inhibition of fungal pathogens) | 0.4 (≈ 0.7 µM) | 0.4 (≈ 0.7 µM) | > 50 | > 50 | 2 (≈ 3.5 µM) | 2 (≈ 3.5 µM) | > 50 | 0.6 to 3 | IC90 (Septoria tritici (St); 48 h, Table 4b): > 50 µg/mL
3 | COc1ccc(F)cc1[C@H](Cn1c(=O)n([C@@H](C)C(=O)N2CCCC2)c(=O)c2c(C)c(-n3cccn3)sc21)OC(C)C [Compound I-31, 1-((R)-2-(5-fluoro-2-methoxyphenyl)-2-isopropoxyethyl)-5-methyl-3-((S)-1-oxo-1-(pyrrolidin-1-yl)propan-2-yl)-6-(1H-pyrazol-1-yl)thieno[2,3-d]pyrimidine-2,4(1H,3H)-dione] | 3 to 10 |  |  |  | 0.4 (≈ 0.685 µM) | 0.4 (≈ 0.685 µM) | 0.4 (≈ 0.685 µM) | 0.4 (≈ 0.685 µM) | 0.4 (≈ 0.685 µM) | 0.4 (≈ 0.685 µM) |  |  |  |  |  |  | 2 (≈ 3.43 µM) | 2 (≈ 3.43 µM) |  | 0.6 to 3 | MIC (C. albicans ATCC 90028; [8]): 1.1 to 2 µg/mL (≈ 1.88 to 3.43 µM); MIC (C. krusei ATCC 6258; [9]): 2.1 to 4 µg/mL (≈ 3.6 to 6.85 µM); MIC [1, 10]: 2.1 to 4 µg/mL (≈ 3.6 to 6.85 µM); IC90 ([3]; Table 4a, 48 hours): 0.08 µg/mL (≈ 0.137 µM); IC90 ([3]; Table 4b, 48 hours): 0.08 µg/mL (≈ 0.137 µM); IC90 [4, 11]: 0.4 µg/mL (≈ 0.685 µM); IC90 [4, 12]: 0.4 µg/mL (≈ 0.685 µM); IC90 ([5]; Table 4a, 48 hours): > 50 µg/mL; Concentration at 90% Inhibition Pc ([5]; Table 4b, 48 hours): D (“D” provided a compound concentration of >50 ppm at 90% inhibition of fungal pathogens); Concentration at 90% Inhibition St (Septoria tritici (St); Table 4b, 48 hours): D (“D” provided a compound concentration of >50 ppm at 90% inhibition of fungal pathogens); IC90 (Septoria tritici (St); Table 4a, 48 hours): > 50 µg/mL
4 | COc1ccc(F)cc1[C@H](Cn1c(=O)n(C(C)C(=O)N2CCCC2)c(=O)c2c(C)c(-n3cccn3)sc21)OC(C)C (stereo partly drawn) [Compound I-32, 1-((R)-2-(5-fluoro-2-methoxyphenyl)-2-isopropoxyethyl)-5-methyl-3-(1-oxo-1-(pyrrolidin-1-yl)propan-2-yl)-6-(1H-pyrazol-1-yl)thieno[2,3-d]pyrimidine-2,4(1H,3H)-dione] | 3 to 10 |  |  |  | 0.4 (≈ 0.685 µM) | 0.4 (≈ 0.685 µM) | 0.4 (≈ 0.685 µM) | 0.4 (≈ 0.685 µM) | 2 (≈ 3.43 µM) | 2 (≈ 3.43 µM) |  |  |  |  |  |  | 2 (≈ 3.43 µM) | 2 (≈ 3.43 µM) |  | 0.6 to 3 | MIC (C. albicans ATCC 90028; [8]): 2.1 to 4 µg/mL (≈ 3.6 to 6.85 µM); MIC (C. krusei ATCC 6258; [9]): 2.1 to 4 µg/mL (≈ 3.6 to 6.85 µM); MIC [1, 10]: > 4.1 µg/mL; IC90 ([3]; Table 4a, 48 hours): 0.08 µg/mL (≈ 0.137 µM); IC90 ([3]; Table 4b, 48 hours): 0.08 µg/mL (≈ 0.137 µM); IC90 [4, 11]: 0.4 µg/mL (≈ 0.685 µM); IC90 [4, 12]: 0.4 µg/mL (≈ 0.685 µM); IC90 ([5]; Table 4a, 48 hours): > 50 µg/mL; Concentration at 90% Inhibition Pc ([5]; Table 4b, 48 hours): D (“D” provided a compound concentration of >50 ppm at 90% inhibition of fungal pathogens); Concentration at 90% Inhibition St (Septoria tritici (St); Table 4b, 48 hours): D (“D” provided a compound concentration of >50 ppm at 90% inhibition of fungal pathogens); IC90 (Septoria tritici (St); Table 4a, 48 hours): > 50 µg/mL
5 | CCO[C@@H](Cn1c(=O)n(C(C)(C)C(=O)NC(C)C)c(=O)c2c(C)c(-n3cccn3)sc21)c1cc(F)ccc1OC [Compound I-33, (R)-2-(1-(2-ethoxy-2-(5-fluoro-2-methoxyphenyl)ethyl)-5-methyl-2,4-dioxo-6-(1H-pyrazol-1-yl)-1,4-dihydrothieno[2,3-d]pyrimidin-3(2H)-yl)-N-isopropyl-2-methylpropanamide] | 10 to 40 | > 4.1 | > 4.1 | > 4.1 | 2 (≈ 3.5 µM) | 2 (≈ 3.5 µM) | 10 (≈ 17.5 µM) | 2 (≈ 3.5 µM) | > 50 | > 50 | 0.4 (≈ 0.7 µM) | A (“A” provided a compound concentration of 0.4 ppm at 90% inhibition of fungal pathogens) | 0.4 (≈ 0.7 µM) | 0.4 (≈ 0.7 µM) | > 50 | > 50 | 10 (≈ 17.5 µM) | 2 (≈ 3.5 µM) | > 50 | 0.6 to 3 | IC90 (Septoria tritici (St); 48 h, Table 4b): > 50 µg/mL
6 | CCO[C@@H](Cn1c(=O)n(C(C)(C)C(=O)N2CCCC2)c(=O)c2c(C)c(-n3cccn3)sc21)c1cc(F)ccc1OC [Compound I-34, (R)-1-(2-ethoxy-2-(5-fluoro-2-methoxyphenyl)ethyl)-5-methyl-3-(2-methyl-1-oxo-1-(pyrrolidin-1-yl)propan-2-yl)-6-(1H-pyrazol-1-yl)thieno[2,3-d]pyrimidine-2,4(1H,3H)-dione] | 10 to 40 |  |  |  | 0.4 (≈ 0.685 µM) | 0.4 (≈ 0.685 µM) | 2 (≈ 3.43 µM) | 2 (≈ 3.43 µM) | 10 (≈ 17.1 µM) | 2 (≈ 3.43 µM) |  |  |  |  |  |  | 2 (≈ 3.43 µM) | 2 (≈ 3.43 µM) |  | 0.6 to 3 | MIC (C. albicans ATCC 90028; [8]): > 4.1 µg/mL; MIC (C. krusei ATCC 6258; [9]): > 4.1 µg/mL; MIC [1, 10]: > 4.1 µg/mL; IC90 ([3]; Table 4a, 48 hours): 0.08 µg/mL (≈ 0.137 µM); IC90 ([3]; Table 4b, 48 hours): 0.08 µg/mL (≈ 0.137 µM); IC90 [4, 11]: 0.4 µg/mL (≈ 0.685 µM); IC90 [4, 12]: 0.4 µg/mL (≈ 0.685 µM); IC90 ([5]; Table 4a, 48 hours): > 50 µg/mL; Concentration at 90% Inhibition Pc ([5]; Table 4b, 48 hours): D (“D” provided a compound concentration of >50 ppm at 90% inhibition of fungal pathogens); Concentration at 90% Inhibition St (Septoria tritici (St); Table 4b, 48 hours): D (“D” provided a compound concentration of >50 ppm at 90% inhibition of fungal pathogens); IC90 (Septoria tritici (St); Table 4a, 48 hours): > 50 µg/mL
